Measured values published in ChEMBL document CHEMBL4002647, “BMS-933043, a Selective α7 nAChR Partial Agonist for the Treatment of Cognitive Deficits Associated with Schizophrenia” (ACS Med Chem Lett, 2017).
The source made the active and inactive calls. The calls are words filed in the database; no cut-off is given here.

How the values were obtained:
[1] = target: T1, Neuronal acetylcholine receptor subunit alpha-7 (Rattus norvegicus, UniProt Q05941); experiment: Agonist activity at rat alpha7 nAChR expressed in HEK293 cells assessed as increase in Ca2+ flux by Fluo-4 AM dye based FLIPR assay; format: cell-based
[2] = target: T1, Neuronal acetylcholine receptor subunit alpha-7; experiment: Agonist activity at rat alpha7 nAChR expressed in HEK293 cells co-expressing human RIC3 assessed as area under current curve at holding potential of -90 mV by whole-cell voltage clamp electrophysiology method; format: cell-based
[3] = target: T2, Neuronal acetylcholine receptor subunit alpha-7 (Homo sapiens, UniProt P36544); experiment: Agonist activity at human alpha7 nAChR expressed in HEK293 cells co-expressing human RIC3 assessed as induction of peak current amplitutde at 10 uM at holding potential of -90 mV by whole-cell voltage clamp electrophysiology method relative to acetylcholine; format: cell-based
[4] = target: T2, Neuronal acetylcholine receptor subunit alpha-7; experiment: Agonist activity at human alpha7 nAChR expressed in HEK293 cells co-expressing human RIC3 assessed as area under current curve at 10 uM at holding potential of -90 mV by whole-cell voltage clamp electrophysiology method relative to acetylcholine; format: cell-based
[5] = target: T2, Neuronal acetylcholine receptor subunit alpha-7; experiment: Agonist activity at human alpha7 nAChR expressed in HEK293 cells co-expressing human RIC3 assessed as area under current curve at holding potential of -90 mV by whole-cell voltage clamp electrophysiology method; format: cell-based
[6] = target: Nicotinic acetylcholine receptor alpha-1/beta-1/delta/epsilon (Rattus norvegicus, UniProt P09660+P25108+P25109+P25110); experiment: Agonist activity at rat alpha1beta1delta1epsilon nAChR expressed in HEK293 cells assessed as increase in Ca2+ flux by Fluo-4 AM dye based FLIPR assay; format: cell-based
[7] = target: Neuronal acetylcholine receptor; alpha3/beta4 (Rattus norvegicus, UniProt P04757+P12392); experiment: Agonist activity at rat alpha3beta4 nAChR expressed in HEK293 cells assessed as increase in Ca2+ flux by Fluo-4 AM dye based FLIPR assay; format: cell-based
[8] = target: Neuronal acetylcholine receptor; alpha4/beta2 (Rattus norvegicus, UniProt P09483+P12390); experiment: Agonist activity at rat alpha4beta2 nAChR expressed in HEK293 cells assessed as increase in Ca2+ flux by Fluo-4 AM dye based FLIPR assay; format: cell-based
[9] = target: Muscarinic acetylcholine receptor M1 (Homo sapiens) (UniProt P11229); experiment: Activity at human muscarinic M1 receptor
[10] = target: Muscarinic acetylcholine receptor M3 (Homo sapiens) (UniProt P20309); experiment: Activity at human muscarinic M3 receptor
[11] = target: Muscarinic acetylcholine receptor M4 (Homo sapiens) (UniProt P08173); experiment: Activity at human muscarinic M4 receptor
[12] = target: Muscarinic acetylcholine receptor M5 (Homo sapiens) (UniProt P08912); experiment: Activity at human muscarinic M5 receptor
[13] = Metabolic stability in human liver microsomes assessed as compound remaining at 3 uM after 10 mins by LC-MS/MS analysis; format: ADME, microsome; conditions: read-out: Stability
[14] = Metabolic stability in rat liver microsomes assessed as compound remaining at 3 uM after 10 mins by LC-MS/MS analysis; format: ADME, microsome; conditions: read-out: Stability
[15] = Metabolic stability in dog liver microsomes assessed as compound remaining at 3 uM after 10 mins by LC-MS/MS analysis; format: ADME, Canis lupus familiaris, microsome; conditions: read-out: Stability
[16] = Metabolic stability in monkey liver microsomes assessed as compound remaining at 3 uM after 10 mins by LC-MS/MS analysis; format: ADME, Macaca mulatta, microsome; conditions: rhesus monkey, read-out: Stability
[17] = target: T3, Cytochrome P450 3A4 (Homo sapiens, UniProt P08684); experiment: Inhibition of recombinant human CYP3A4 using fluorogenic substrate BFC preincubated for 30 mins and measured after 20 to 60 mins in presence of NADPH regenerating system by fluorescence assay; format: ADME
[18] = target: T3, Cytochrome P450 3A4; experiment: Inhibition of recombinant human CYP3A4 using fluorogenic substrate BZR preincubated for 30 mins and measured after 20 to 60 mins in presence of NADPH regenerating system by fluorescence assay; format: ADME
[19] = target: Cytochrome P450 2B6 (Homo sapiens, UniProt P20813); experiment: Inhibition of recombinant human CYP2B6 using fluorogenic substrate preincubated for 30 mins and measured after 20 to 60 mins in presence of NADPH regenerating system by fluorescence assay; format: ADME
[20] = target: Cytochrome P450 2C8 (Homo sapiens, UniProt P10632); experiment: Inhibition of recombinant human CYP2C8 using fluorogenic substrate preincubated for 30 mins and measured after 20 to 60 mins in presence of NADPH regenerating system by fluorescence assay; format: ADME
[21] = target: Cytochrome P450 2D6 (Homo sapiens, UniProt P10635); experiment: Inhibition of recombinant human CYP2D6 using fluorogenic substrate preincubated for 30 mins and measured after 20 to 60 mins in presence of NADPH regenerating system by fluorescence assay; format: ADME
[22] = Fraction unbound in human plasma at 10 uM after 4 hrs by equilibrium dialysis method; format: ADME, cell-free
[23] = Fraction unbound in rat plasma at 10 uM after 4 hrs by equilibrium dialysis method; format: ADME, cell-free
[24] = Fraction unbound in mouse plasma at 10 uM after 4 hrs by equilibrium dialysis method; format: ADME, cell-free
[25] = Fraction unbound in dog plasma at 10 uM after 4 hrs by equilibrium dialysis method; format: ADME, cell-free, Canis lupus familiaris
[26] = Fraction unbound in monkey plasma at 10 uM after 4 hrs by equilibrium dialysis method; format: ADME, cell-free, Macaca mulatta; conditions: rhesus monkey
[27] = system: Mus musculus; experiment: Cognitive enhancing effect in C57Bl/6 mouse assessed as time spent on exploring novel objects at 0.1 to 10 mg/kg, sc administered 30 mins prior to test and measured after 24 hrs by novel object recognition test; format: functional, organism-based
[28] = Fraction unbound in C57Bl/6 mouse plasma at 0.1 mg/kg, sc after 30 mins; format: ADME, organism-based
[29] = Drug level in C57Bl/6 mouse plasma at 0.1 mg/kg, sc after 30 mins; format: ADME, organism-based
[30] = Volume of distribution at steady state in mouse at 1 mg/kg, iv administered as 5 mins infusion; format: ADME, organism-based; conditions: in vivo, read-out: Vdss
[31] = Total plasma clearance in mouse at 1 mg/kg, iv administered as 5 mins infusion; format: ADME, organism-based
[32] = Half life in mouse at 1 mg/kg, iv administered as 5 mins infusion; format: ADME, organism-based; conditions: in vivo
[33] = AUC in mouse at 1 mg/kg, iv administered as 5 mins infusion; format: ADME, organism-based; conditions: in vivo
[34] = Ratio of drug level in mouse brain to plasma at 1 mg/kg, iv administered as 5 mins infusion after 30 mins; format: ADME, organism-based; conditions: brain and plasma, read-out: BPR
[35] = Volume of distribution at steady state in rat at 1 mg/kg, iv administered as 5 mins infusion; format: ADME, organism-based; conditions: in vivo, read-out: Vdss
[36] = Cmax in mouse at 10 mg/kg, po; format: ADME, organism-based; set-up: dose 10 mg/kg, route oral; conditions: in vivo
[37] = AUC in mouse at 10 mg/kg, po; format: ADME, organism-based; conditions: in vivo
[38] = Oral bioavailability in mouse at 10 mg/kg; format: ADME, organism-based; conditions: in vivo
[39] = Total plasma clearance in rat at 1 mg/kg, iv administered as 5 mins infusion; format: ADME, organism-based
[40] = Half life in rat at 1 mg/kg, iv administered as 5 mins infusion; format: ADME, organism-based; conditions: in vivo
[41] = AUC in rat at 1 mg/kg, iv administered as 5 mins infusion; format: ADME, organism-based; conditions: in vivo
[42] = Cmax in rat at 10 mg/kg, po; format: ADME, organism-based; set-up: dose 10 mg/kg, route oral; conditions: in vivo
[43] = AUC in rat at 10 mg/kg, po; format: ADME, organism-based; conditions: in vivo
[44] = Oral bioavailability in rat at 10 mg/kg; format: ADME, organism-based; conditions: in vivo
[45] = Volume of distribution at steady state in dog at 1 mg/kg, iv administered as 5 mins infusion; format: ADME, organism-based, Canis lupus familiaris; conditions: in vivo, read-out: Vdss
[46] = Total plasma clearance in dog at 1 mg/kg, iv administered as 5 mins infusion; format: ADME, organism-based, Canis lupus familiaris
[47] = Half life in dog at 1 mg/kg, iv administered as 5 mins infusion; format: ADME, organism-based, Canis lupus familiaris; conditions: in vivo
[48] = AUC in dog at 1 mg/kg, iv administered as 5 mins infusion; format: ADME, organism-based, Canis lupus familiaris; conditions: in vivo
[49] = Cmax in dog at 5 mg/kg, po; format: ADME, organism-based, Canis lupus familiaris; set-up: dose 5 mg/kg, route oral; conditions: in vivo
[50] = AUC in dog at 5 mg/kg, po; format: ADME, organism-based, Canis lupus familiaris; conditions: in vivo
[51] = Oral bioavailability in dog at 5 mg/kg; format: ADME, organism-based, Canis lupus familiaris; conditions: in vivo
[52] = Volume of distribution at steady state in cynomolgus monkey at 1 mg/kg, iv administered as 5 mins infusion; format: ADME, organism-based, Macaca fascicularis; conditions: in vivo, read-out: Vdss
[53] = Total plasma clearance in cynomolgus monkey at 1 mg/kg, iv administered as 5 mins infusion; format: ADME, organism-based, Macaca fascicularis
[54] = Half life in cynomolgus monkey at 1 mg/kg, iv administered as 5 mins infusion; format: ADME, organism-based, Macaca fascicularis; conditions: in vivo
[55] = AUC in cynomolgus monkey at 1 mg/kg, iv administered as 5 mins infusion; format: ADME, organism-based, Macaca fascicularis; conditions: in vivo
[56] = Cmax in cynomolgus monkey at 5 mg/kg, po; format: ADME, organism-based, Macaca fascicularis; set-up: dose 5 mg/kg, route oral; conditions: in vivo
[57] = AUC in cynomolgus monkey at 5 mg/kg, po; format: ADME, organism-based, Macaca fascicularis; conditions: in vivo
[58] = Oral bioavailability in cynomolgus monkey at 5 mg/kg; format: ADME, organism-based, Macaca fascicularis; conditions: in vivo
[59] = system: Mus musculus; experiment: Cognitive enhancing effect in C57Bl/6 mouse assessed as time spent on exploring novel objects administered subcutaneously 30 mins prior to test and measured after 24 hrs by novel object recognition test; format: functional; conditions: C57Bl/6, sc, read-out: MED
[60] = Metabolic stability in mouse liver microsomes assessed as compound remaining at 3 uM after 10 mins by LC-MS/MS analysis; format: ADME, microsome; conditions: read-out: Stability

T2 sequence (P36544 whole entry): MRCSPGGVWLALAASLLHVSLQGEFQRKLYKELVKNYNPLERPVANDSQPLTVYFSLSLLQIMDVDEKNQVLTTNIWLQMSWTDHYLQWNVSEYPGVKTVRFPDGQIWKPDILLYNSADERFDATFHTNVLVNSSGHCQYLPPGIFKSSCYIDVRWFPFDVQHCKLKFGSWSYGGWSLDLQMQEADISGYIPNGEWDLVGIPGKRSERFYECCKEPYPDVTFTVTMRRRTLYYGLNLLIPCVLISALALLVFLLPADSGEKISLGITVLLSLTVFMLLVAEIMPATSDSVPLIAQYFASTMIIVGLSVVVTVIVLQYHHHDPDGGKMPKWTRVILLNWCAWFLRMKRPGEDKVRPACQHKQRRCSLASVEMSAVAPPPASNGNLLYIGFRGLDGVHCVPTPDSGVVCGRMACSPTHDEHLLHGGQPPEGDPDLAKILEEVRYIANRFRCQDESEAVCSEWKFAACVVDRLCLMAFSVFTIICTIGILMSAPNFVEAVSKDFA
T3 sequence (P08684 whole entry): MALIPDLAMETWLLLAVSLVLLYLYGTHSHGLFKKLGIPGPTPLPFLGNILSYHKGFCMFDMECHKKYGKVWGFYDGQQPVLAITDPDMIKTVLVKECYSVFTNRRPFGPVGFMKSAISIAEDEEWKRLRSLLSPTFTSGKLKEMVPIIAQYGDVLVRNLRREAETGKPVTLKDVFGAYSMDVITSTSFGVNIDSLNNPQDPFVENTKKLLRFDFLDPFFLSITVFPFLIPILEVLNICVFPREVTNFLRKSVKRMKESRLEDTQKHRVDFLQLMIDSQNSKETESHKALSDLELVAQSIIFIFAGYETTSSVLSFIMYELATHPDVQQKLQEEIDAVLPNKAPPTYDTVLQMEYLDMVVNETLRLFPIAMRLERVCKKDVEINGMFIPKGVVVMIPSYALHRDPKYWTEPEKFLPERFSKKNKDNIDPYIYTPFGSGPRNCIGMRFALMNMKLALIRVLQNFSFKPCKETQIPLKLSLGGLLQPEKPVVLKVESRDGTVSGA
T1 sequence (Q05941 whole entry): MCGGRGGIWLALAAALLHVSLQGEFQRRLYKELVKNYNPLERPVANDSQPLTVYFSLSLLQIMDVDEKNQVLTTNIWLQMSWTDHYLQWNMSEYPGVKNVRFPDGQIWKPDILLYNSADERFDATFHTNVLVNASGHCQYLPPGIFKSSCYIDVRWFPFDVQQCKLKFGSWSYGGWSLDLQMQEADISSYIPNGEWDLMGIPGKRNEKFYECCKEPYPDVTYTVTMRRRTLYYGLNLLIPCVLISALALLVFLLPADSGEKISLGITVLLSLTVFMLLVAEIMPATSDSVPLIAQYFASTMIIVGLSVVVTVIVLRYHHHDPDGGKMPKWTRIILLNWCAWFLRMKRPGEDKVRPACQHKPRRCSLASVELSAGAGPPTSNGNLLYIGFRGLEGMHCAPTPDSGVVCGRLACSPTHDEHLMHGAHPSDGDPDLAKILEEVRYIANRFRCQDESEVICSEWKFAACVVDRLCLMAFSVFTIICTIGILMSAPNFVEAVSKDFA
Chain of Cytochrome P450 2D6 (P10635 whole entry): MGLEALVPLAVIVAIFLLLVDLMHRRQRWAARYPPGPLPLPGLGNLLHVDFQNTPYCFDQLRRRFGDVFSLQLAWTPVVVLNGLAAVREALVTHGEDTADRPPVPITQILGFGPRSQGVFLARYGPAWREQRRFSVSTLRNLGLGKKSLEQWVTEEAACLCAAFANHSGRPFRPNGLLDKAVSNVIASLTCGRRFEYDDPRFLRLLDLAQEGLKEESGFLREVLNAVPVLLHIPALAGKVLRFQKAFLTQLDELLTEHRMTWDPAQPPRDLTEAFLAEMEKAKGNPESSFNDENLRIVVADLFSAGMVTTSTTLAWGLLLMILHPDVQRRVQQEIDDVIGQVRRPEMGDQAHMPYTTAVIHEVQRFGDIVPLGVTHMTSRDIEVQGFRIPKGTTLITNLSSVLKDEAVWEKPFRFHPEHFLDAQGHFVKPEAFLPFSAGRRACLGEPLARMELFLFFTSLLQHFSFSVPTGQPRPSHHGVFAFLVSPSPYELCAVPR
Chain of Muscarinic acetylcholine receptor M4 (Homo sapiens) (P08173 whole entry): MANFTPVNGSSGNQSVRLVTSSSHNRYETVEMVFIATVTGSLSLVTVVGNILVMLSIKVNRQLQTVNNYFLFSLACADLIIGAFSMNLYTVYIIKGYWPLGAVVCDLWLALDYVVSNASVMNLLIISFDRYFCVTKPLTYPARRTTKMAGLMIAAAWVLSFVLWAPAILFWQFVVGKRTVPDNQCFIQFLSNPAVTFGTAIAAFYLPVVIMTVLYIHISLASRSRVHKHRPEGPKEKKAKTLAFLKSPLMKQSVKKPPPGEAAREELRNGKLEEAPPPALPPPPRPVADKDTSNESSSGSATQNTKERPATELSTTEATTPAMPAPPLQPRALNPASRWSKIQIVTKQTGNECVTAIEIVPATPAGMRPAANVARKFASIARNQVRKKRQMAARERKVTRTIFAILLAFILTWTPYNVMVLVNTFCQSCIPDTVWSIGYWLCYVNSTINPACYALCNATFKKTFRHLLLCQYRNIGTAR
Chain of Muscarinic acetylcholine receptor M1 (Homo sapiens) (P11229 whole entry): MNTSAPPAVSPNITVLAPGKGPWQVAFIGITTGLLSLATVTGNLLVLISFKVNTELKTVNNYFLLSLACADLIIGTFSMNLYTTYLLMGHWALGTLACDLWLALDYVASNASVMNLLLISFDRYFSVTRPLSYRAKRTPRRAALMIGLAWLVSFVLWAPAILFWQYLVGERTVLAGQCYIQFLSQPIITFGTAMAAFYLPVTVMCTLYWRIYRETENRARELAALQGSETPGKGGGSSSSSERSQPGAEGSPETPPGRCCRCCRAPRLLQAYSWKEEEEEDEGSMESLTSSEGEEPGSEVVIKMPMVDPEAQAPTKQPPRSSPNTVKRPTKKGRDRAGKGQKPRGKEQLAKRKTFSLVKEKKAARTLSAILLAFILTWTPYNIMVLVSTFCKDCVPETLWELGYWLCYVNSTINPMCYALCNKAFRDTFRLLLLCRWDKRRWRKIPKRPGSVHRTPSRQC
Chain of Cytochrome P450 2B6 (P20813 whole entry): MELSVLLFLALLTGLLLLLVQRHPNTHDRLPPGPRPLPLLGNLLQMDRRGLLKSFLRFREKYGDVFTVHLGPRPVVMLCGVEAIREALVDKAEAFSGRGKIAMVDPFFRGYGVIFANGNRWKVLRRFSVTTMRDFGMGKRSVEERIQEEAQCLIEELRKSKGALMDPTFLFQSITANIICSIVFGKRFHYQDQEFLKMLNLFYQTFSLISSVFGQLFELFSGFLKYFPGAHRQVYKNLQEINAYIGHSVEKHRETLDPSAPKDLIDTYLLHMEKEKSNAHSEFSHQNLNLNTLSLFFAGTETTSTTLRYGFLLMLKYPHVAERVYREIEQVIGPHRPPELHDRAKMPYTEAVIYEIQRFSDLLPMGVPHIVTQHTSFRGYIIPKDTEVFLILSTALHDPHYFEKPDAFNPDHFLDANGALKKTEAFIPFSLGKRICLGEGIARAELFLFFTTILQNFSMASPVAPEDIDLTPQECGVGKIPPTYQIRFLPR
Chain of Cytochrome P450 2C8 (P10632 whole entry): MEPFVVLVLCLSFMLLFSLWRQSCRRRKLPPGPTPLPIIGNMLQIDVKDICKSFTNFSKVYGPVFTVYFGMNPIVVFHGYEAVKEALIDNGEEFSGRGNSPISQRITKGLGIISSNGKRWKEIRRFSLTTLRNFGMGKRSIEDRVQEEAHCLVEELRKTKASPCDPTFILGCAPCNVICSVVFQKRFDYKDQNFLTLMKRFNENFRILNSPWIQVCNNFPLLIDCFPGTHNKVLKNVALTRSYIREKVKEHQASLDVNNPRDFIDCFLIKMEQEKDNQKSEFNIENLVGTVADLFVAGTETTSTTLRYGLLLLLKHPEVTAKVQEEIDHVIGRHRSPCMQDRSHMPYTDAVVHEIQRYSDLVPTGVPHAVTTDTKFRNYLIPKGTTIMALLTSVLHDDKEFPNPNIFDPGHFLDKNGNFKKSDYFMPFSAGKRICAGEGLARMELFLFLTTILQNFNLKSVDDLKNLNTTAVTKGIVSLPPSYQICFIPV
Chain of Muscarinic acetylcholine receptor M3 (Homo sapiens) (P20309 whole entry, looked up): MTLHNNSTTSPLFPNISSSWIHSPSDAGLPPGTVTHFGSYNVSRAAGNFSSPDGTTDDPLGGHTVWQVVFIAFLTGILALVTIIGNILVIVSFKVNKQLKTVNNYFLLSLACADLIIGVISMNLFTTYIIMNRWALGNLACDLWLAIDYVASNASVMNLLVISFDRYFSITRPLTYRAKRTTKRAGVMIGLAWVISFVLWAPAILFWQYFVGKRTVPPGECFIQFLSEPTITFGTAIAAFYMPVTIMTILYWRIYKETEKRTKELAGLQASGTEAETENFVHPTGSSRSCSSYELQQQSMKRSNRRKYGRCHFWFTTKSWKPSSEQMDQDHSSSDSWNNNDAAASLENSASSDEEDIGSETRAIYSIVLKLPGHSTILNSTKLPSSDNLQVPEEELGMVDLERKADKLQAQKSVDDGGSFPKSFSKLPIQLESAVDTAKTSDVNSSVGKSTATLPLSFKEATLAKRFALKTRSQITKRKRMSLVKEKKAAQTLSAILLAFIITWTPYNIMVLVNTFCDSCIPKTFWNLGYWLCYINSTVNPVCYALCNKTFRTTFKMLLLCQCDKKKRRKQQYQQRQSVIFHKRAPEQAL

`c1cn(-c2cc(NC3=NC[C@@]4(CN5CCC4CC5)O3)ncn2)cn1` gave an EC50 [1] of 0.023 µM, an EC50 [2] of 0.1 µM and a %max [3] of 24%. For the same compound, the %max [4] was 78%, the EC50 [5] was 0.3 µM and the EC50 [6] was greater than 100 µM. The EC50 [7] was greater than 100 µM, the EC50 [8] was greater than 100 µM and the Activity [9] was “inactive”. The Activity [10] was “inactive”, the Activity [11] was “inactive” and the Activity [12] was “inactive”. It also gave a remaining at 10 min, 3 µM [13] of 91%, a remaining at 10 min, 3 µM [14] of 95% and a remaining at 10 min, 3 µM [15] of 98%. It also gave a remaining at 10 min, 3 µM [16] of 100%, an IC50 [17] greater than 30 µM and an IC50 [18] greater than 30 µM. The IC50 [19] was greater than 30 µM, the IC50 [20] was greater than 30 µM and the IC50 [21] was greater than 30 µM. The fraction unbound at 4 h, 10 µM [22] was 0.87, the fraction unbound at 4 h, 10 µM [23] was 0.87 and the fraction unbound at 4 h, 10 µM [24] was 0.84. The fraction unbound at 4 h, 10 µM [25] was 0.93, the fraction unbound at 4 h, 10 µM [26] was 0.87 and the Activity [27] was “Active”. For the same compound, the fraction unbound at 0.5 h [28] was 0.84, the concentration at 0.5 h [29] was 52 nM and the Vd [30] was 7 L/kg. The clearance [31] was 96 mL/min/kg, the half-life [32] was 1.1 h and the AUC at 5 min [33] was 0.53 µM·h. It also gave a Kp at 0.5 h [34] of 0.21, a Vd [35] of 2.9 L/kg and a Cmax [36] of 550 nM. It also gave an AUC [37] of 3.2 µM·h, a bioavailability [38] of 45% and a clearance [39] of 70 mL/min/kg. The half-life [40] was 0.7 h, the AUC at 5 min [41] was 0.75 µM·h and the Cmax [42] was 1600 nM. For the same compound, the AUC [43] was 7.2 µM·h, the bioavailability [44] was 97% and the Vd [45] was 5.5 L/kg. It also gave a clearance [46] of 15 mL/min/kg, a half-life [47] of 5.5 h and an AUC at 5 min [48] of 3.4 µM·h. It also gave a Cmax [49] of 3200 nM, an AUC [50] of 19 µM·h and a bioavailability [51] of 100%. For the same compound, the Vd [52] was 5.7 L/kg, the clearance [53] was 17 mL/min/kg and the half-life [54] was 4.4 h. The AUC at 5 min [55] was 3 µM·h, the Cmax [56] was 1300 nM and the AUC [57] was 11 µM·h. It also gave a bioavailability [58] of 70%, a minimal effective dose [59] of 0.1 mg/kg and a remaining at 10 min, 3 µM [60] of 93%.
